Experimental data from patent US20070212723A1, “Human sodium channel isoforms” (priority 2006, published 2007).

Columns and labels:
H9c2 cardiomyocytes = settings: H9c2, serum free medium, 48 h
Excerpt: The rat embryonic cardiomyocyte cell line, H9c2 (ATCC cat # CRL-1446), or acutely isolated neonatal rat heart cardiomyocytes were used. Rat neonatal ventricular cells were isolated from 3-day-old Sprague-Dawley rats (Charles River Laboratories Wilmington, Mass.) using a kit and following the manufacturer's instructions (Worthington Biochemical Corp. Lakewood, N.J.). Cells cultured in Dulbecco's modified Eagle's medium (DMEM; ATCC, Manassas, Va.) with 10% fetal calf serum (ATCC) under standard tissue culture conditions at 37° C. to 70-80% confluence were exposed to AngII (Sigma, St. Louis, Mo.) or H2O2 (Sigma) in serum free culture medium (SFM) for a total of 48 h in triplicate in 24 well plates. Experiments were repeated three times. After dissociation with 0.125% trypsin-EDTA, 20 μL of 0.4% Trypan-blue (Sigma, St. Louis, Mo.) was added to each well, and a Trypan-blue exclusion viability assay was performed.

[1] = system: cardiac sodium channel (scn5a) mRNA; experiment: Quantitative real-time RT-PCR of scn5a transcripts in acutely isolated neonatal cardiomyocytes; assay type: cell-based, rat
[2] = system: cardiac sodium channel (scn5a) mRNA; experiment: Quantitative real-time RT-PCR of scn5a transcripts in H9c2 cells; assay type: cell-based, rat
[3] = target: T1, NF-κB binding to the scn5a promoter (Rattus norvegicus, UniProt Q63369+Q7TQN4); experiment: Electrophoretic mobility shift assay with H9c2 nuclear extracts; assay type: cell-based
T1 construct: endogenous in cells; host or cells: H9c2 cardiomyocytes (nuclear extract / cross-linked chromatin)
Excerpt: Approximately 5×10^6 cells were scraped for nuclear protein extraction by nuclear extract kit (Activemotif, Carlsbad, Calif.). A double-stranded oligonucleotide containing the consensus-binding sequence (bold) for […] ID NO. 32)) and NF-Kb mutant sequence ([NT] ID NO. 33)) from scn5a promoter were used as probes to assay for binding activity of the nuclear extracts. Protein-DNA complexes were detected using biotin end-labeled double-stranded DNA probes prepared by annealing complementary oligonucleotides. Oligonucleotides were labeled in a reaction using terminal deoxynucleotide transferase and biotin-N4-CTP (Pierce, Rockford, Ill.) following the biotin 3' end DNA labeling kit manual. The binding reaction was performed using the LightShift kit (Pierce). Briefly, 30 μg of nuclear extracts and binding buffer were incubated on ice for 5 min in a volume of 20 μL, then the labeled probe (20 fmol) was added, and the reaction was allowed to incubate for an additional 25 min. Following electrophoresis, the DNA-protein complexes were transferred onto nylon membranes and detected using chemiluminescence. TNF-α activated H9c2 cell nuclear extract (5 μg) was used as positive control. The reaction products were separated on a 6% retardation gel. Specificity was confirmed by addition of unlabelled probe in 200-fold excess.

[4] = target: T2, NF-κB p50/p65 subunits on the cardiac Na+ channel promoter (Rattus norvegicus, UniProt Q63369+Q7TQN4); experiment: Chromatin immunoprecipitation (ChIP) assay in H9c2 cells; assay type: cell-based
T2 construct: endogenous in cells; host or cells: H9c2 cardiomyocytes (nuclear extract / cross-linked chromatin)
Method: Formaldehyde cross-linking and chromatin immunoprecipitation was performed as described in manufactory's manual (ChIP-IT™ kit, Activemotif). Briefly, proteins were crosslinked with chromatin using 1% formaldehyde in H9c2 cells with or without treatment. The cells were subsequently sonicated in lysis buffer, and an aliquot of the lysate was used in a PCR reaction. The remaining lysate was cleared with protein G beads. One half of the cleared lysate was incubated with p50 or p65 antibody, while the other half was used as a negative control without the antibody. After reversing the cross-linking, the immuno-complex was digested with proteinase K, and the DNA was purified. DNA was analyzed by PCR with the PicoMax Polymerase (Stratagene, La Jolla, Calif.) and primers specific to the APS3 promoter region.

scn5a promoter = experiment: scn5a promoter-reporter (pGL3-APS3) dual-luciferase assay in H9c2 cells; assay type: cell-based, rat; settings: APS3 construct, H9c2, 20 μM H2O2, 48 h
[5] = system: cardiac Na+ channel current; experiment: Patch-clamp determination of Na+ current in H9c2 cells; assay type: cell-based, rat; settings: H9c2, 20 μmol/L H2O2, 48 h, step to -10 mV
Method: Three hours prior to the start of the patch-clamp experiments, H9c2 cells were trypsinized and plated on treated plastic coverslips. H9c2 cells were treated with or without H2O2 as indicated. Glass pipettes were pulled on a Sutter Model P-97 horizontal puller to a resistance of 0.5 to 1.5 MΩ. The glass pipettes were filled with a solution of (in mM) CsCl 60, Cesium Aspartate 80, EGTA sodium 11, HEPES 10, Na2ATP 5 and pH 7.2 with CsOH. The bath solution consisted of (in mM) Na 30, […] chloride 100, CsCl 5, CaCl2 2, MgCl2 1.2, HEPES 10, Glucose 5 and pH 7.4 with NaOH. Once a seal was established, a small amount of suction was applied to obtain the whole cell configuration. From a holding potential of −100 mV, peak currents obtained at −10 mV were used for comparison. Cells were tested at 25° C. Data were sampled at 10 kHz and later filtered at 5 kHz for analysis. Currents were recorded and analyzed with an Axopatch 200B amplifier, Axon Digidata 1230A A/D converter and pClamp software (Molecular Devices Corporation, Sunnyvale, Calif.).

Na+ current = Na+ current (Homo sapiens, UniProt Q14524); settings: acute exposure, dependent on PKC activation (Ward et al. 1997); cited from earlier work
[6] = system: scn5a promoter with mutated NF-κB binding site; experiment: Promoter-reporter assay with mutated NF-κB binding site (APS3-NF-κBm) in H9c2 cells; assay type: cell-based, rat; settings: H9c2, 48 h, 100 nM AngII or 20 μM H2O2

T2 sequence (Q63369 1-433 limits assumed): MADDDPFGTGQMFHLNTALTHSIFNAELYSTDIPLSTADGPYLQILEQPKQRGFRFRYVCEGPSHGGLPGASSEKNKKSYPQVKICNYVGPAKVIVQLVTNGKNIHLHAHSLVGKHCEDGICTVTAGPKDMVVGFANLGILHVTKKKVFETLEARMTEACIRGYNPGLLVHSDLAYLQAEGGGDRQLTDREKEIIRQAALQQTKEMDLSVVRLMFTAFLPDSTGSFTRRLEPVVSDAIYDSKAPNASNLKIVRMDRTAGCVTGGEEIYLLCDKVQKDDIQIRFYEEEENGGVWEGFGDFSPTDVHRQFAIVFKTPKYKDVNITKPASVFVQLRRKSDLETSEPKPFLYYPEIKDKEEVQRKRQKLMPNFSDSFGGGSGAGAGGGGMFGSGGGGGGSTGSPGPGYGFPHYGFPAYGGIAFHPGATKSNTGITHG
T2 sequence (Q7TQN4 whole entry): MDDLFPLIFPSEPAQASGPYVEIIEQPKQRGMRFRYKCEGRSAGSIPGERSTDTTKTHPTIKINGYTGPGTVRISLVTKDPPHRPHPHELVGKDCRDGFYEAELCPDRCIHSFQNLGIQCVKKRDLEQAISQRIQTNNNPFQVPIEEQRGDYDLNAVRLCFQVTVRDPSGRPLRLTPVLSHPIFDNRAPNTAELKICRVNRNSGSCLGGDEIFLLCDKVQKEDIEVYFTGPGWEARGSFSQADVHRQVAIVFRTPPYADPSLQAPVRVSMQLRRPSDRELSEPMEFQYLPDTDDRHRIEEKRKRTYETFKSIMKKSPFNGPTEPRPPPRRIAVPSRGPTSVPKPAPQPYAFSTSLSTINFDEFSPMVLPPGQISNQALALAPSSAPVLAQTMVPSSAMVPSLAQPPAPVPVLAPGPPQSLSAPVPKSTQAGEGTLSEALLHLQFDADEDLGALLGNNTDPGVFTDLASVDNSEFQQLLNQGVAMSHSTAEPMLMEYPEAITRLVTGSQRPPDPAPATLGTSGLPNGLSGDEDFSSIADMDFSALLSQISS
T1 sequence (Q63369 1-433 limits assumed): as the sequence (Q63369 1-433 limits assumed) above
T1 sequence (Q7TQN4 whole entry): as the sequence (Q7TQN4 whole entry) above
Sequence of Na+ current (Q14524 whole entry): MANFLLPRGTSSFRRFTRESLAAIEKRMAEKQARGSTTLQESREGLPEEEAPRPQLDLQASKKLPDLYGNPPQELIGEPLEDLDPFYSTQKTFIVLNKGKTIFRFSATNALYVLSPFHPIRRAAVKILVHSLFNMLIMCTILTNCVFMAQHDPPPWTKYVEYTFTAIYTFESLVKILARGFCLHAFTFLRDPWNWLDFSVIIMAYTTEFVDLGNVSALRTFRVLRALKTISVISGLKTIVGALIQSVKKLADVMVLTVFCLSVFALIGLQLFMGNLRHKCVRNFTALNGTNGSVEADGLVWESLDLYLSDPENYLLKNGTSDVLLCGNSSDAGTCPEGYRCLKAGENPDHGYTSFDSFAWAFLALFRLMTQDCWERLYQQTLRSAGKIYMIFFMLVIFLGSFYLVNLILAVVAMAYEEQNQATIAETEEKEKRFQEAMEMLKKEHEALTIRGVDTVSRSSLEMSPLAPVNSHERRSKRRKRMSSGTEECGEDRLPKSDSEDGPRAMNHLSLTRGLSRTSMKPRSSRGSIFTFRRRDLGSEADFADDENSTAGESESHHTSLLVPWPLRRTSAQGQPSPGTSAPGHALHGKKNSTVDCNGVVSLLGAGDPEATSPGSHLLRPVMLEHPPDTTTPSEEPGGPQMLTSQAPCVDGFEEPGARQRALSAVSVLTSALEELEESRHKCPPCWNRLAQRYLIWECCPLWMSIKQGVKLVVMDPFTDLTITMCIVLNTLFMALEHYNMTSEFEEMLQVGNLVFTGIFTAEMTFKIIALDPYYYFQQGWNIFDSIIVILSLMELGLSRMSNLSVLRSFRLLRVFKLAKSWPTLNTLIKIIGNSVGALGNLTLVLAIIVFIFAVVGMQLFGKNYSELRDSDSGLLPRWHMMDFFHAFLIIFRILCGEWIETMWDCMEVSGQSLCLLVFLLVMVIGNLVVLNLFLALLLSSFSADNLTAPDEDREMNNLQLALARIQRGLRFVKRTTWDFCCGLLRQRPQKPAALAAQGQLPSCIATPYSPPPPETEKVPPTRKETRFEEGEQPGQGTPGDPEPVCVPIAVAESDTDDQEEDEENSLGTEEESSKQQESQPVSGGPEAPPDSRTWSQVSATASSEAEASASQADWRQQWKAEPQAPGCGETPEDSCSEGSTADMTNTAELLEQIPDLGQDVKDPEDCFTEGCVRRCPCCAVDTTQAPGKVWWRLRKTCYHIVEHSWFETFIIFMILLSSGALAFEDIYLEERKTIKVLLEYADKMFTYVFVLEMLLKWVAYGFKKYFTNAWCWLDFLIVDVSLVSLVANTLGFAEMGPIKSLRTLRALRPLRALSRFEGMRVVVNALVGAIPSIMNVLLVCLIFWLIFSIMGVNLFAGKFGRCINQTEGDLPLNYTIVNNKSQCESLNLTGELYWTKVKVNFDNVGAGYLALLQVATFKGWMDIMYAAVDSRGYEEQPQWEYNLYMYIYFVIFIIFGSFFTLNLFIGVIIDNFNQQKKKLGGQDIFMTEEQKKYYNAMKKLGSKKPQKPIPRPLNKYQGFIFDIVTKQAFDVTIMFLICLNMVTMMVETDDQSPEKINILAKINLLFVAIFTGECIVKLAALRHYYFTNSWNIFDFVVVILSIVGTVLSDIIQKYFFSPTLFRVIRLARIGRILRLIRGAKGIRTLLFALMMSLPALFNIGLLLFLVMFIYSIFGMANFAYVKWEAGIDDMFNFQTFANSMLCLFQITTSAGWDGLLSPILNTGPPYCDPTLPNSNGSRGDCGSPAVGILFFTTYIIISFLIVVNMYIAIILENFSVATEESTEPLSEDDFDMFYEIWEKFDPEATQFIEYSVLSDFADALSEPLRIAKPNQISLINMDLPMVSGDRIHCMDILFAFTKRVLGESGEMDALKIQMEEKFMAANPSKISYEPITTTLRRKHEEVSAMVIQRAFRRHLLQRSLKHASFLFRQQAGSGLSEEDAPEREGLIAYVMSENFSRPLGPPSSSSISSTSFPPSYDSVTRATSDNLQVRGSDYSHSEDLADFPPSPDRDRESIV

In the case of CC[C@H](C)[C@H](NC(=O)[C@H](Cc1ccc(O)cc1)NC(=O)[C@@H](NC(=O)[C@H](CCCNC(=N)N)NC(=O)[C@@H](N)CC(=O)O)C(C)C)C(=O)N[C@@H](Cc1cnc[nH]1)C(=O)N1CCC[C@H]1C(=O)N[C@@H](Cc1ccccc1)C(=O)O [AngII, angiotensin II], the “AngII concentrations tolerated (cell viability)” value (H9c2 cardiomyocytes) is reported as 1 to 500 nM.

For catalase, the “effect on AngII-mediated downregulation of Na+ channel mRNA” value ([1]; neonatal cardiomyocytes, pretreatment with PEG-catalase 250 U/mL, AngII 2 nM, 48 h) was “prevented” and the “effect on AngII-mediated downregulation of Na+ channel mRNA” value ([2]; H9c2, pretreatment with PEG-catalase 250 U/mL, AngII 100 nM, 48 h) was “prevented”.

For O=C(/C=C/c1ccc(O)c(O)c1)OCCc1ccccc1 [CAPE, caffeic acid phenethyl ester], the “effect on NF-κB binding to scn5a promoter probe” value ([3]; CAPE 10 μM, H9c2 treated with H2O2) was “blocked” and the “effect on binding of p50 and p65 subunits to the channel promoter” value ([4]; H9c2, CAPE) was “could prevent biding of both subunits”.

For OO [H2O2], the “depression of scn5a Na+ channel promoter activity” value (scn5a promoter) was 42.3%, the “decrease in peak Na+ current” value [5] was 46% and the “NF-κB binding activity to scn5a promoter probe” value ([3]; H9c2 nuclear extracts, 48 h treatment) was “increased”. The “reduction in Na+ channel mRNA” value ([1]; isolated neonatal rat myocytes, 40 nM H2O2, 48 h) was 45.4%, the “effect on inactivation of the Na+ current” value (Na+ current) was “slowing of inactivation” and the “NF-κB subunits on the cardiac Na+ channel promoter” value ([4]; H9c2, AngII or H2O2 treatment) was “formation of the complete p50-p65 NF-κB heterodimer”. For the same compound, the “change in promoter activity of construct with mutated NF-κB binding site” value [6] was “no significant change in activity” and the “reduction in Na+ channel mRNA” value ([2]; H9c2, 20 μmol/L H2O2, 48 h) was 46.9%.
